We go through twelve molecules from US20260209234A1, “SUBSTITUTED DIHYDROPYRROLO[3,4-D]PYRIMIDINE COMPOUNDS AND THEIR USE IN TREATING MEDICAL CONDITIONS” (Karuna Therapeutics, Inc., priority 2022, published 2026).

Assay [1] has as its target T1, rM4 receptors (Rattus norvegicus, UniProt P08485).
T1 construct: expressed in transfected cells; host or cells: CHO cells
T1 sequence (P08485 1-478): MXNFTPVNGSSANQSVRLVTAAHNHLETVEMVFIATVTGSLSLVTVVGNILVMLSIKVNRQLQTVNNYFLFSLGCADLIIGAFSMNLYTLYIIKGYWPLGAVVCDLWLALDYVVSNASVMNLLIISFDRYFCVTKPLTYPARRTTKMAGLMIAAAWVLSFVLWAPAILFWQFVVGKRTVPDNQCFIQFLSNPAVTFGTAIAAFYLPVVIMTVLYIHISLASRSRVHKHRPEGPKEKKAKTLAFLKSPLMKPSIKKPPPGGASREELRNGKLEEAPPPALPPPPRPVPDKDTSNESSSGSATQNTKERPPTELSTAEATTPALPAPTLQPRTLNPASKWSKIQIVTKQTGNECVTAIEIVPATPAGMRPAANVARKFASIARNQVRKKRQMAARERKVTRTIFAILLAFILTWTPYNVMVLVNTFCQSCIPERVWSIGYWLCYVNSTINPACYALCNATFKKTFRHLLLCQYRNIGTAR
Kind of assay: Rat M4 PAM pERK assay. The class given is cell-based. To be noted: CHO cells expressing rM4; EC20 of acetylcholine (10 nM final); TR-FRET. The procedure: (§1) Chinese hamster ovary (CHO) cells expressing either hM4 or rM4 receptors were frozen in assay ready vials (5×10^6 cells/vial) after bulking-up in culture. The day before an assay, vial(s) were thawed and cells seeded in 384 well white proxiplates at 1000/well for hM4 cells and at 2000/well for rM4 cells, in 10 μL of growth media (Hams/F12 with glutamax and 10% FCS) and incubated overnight at 37° C./5% CO2.
(§2) On the following morning, the growth media was removed by ‘flicking out’ over a bin, patting the inverted plate onto tissue, and then replacing with 10 μL of wash media (Hams/F12 with glutamax and 8 mM HEPES, NB: serum free). Then, the wash media was removed in the same way and replaced with 8 μL/well of the serum free media. Plates were then re-incubated for a further 4 hours at 37° C./5% CO2.
(§3) Compounds for testing were solubilized to 10 mM in DMSO and compound addition plates, consisting of ten-point concentration response curves (CRC) in duplicate points (10 μM top concentration, 1/2 log dilution series), were prepared by acoustic dispensing and the compound management group.
(§4) After the 4-hour incubation in serum free media, a 4 μL aliquot of the 3× compound solution containing an EC20 of acetylcholine (10 nM final concentration) was added to the cell plate using a 384 well plate to plate transfer. Then, the plate lid was replaced, and the cells incubated for 5 mins at 37° C./5% CO2. Following this final incubation, all cellular processes were stopped by the addition of 4 μL/well of lysis and blocking buffer and plates were incubated for 30 minutes at RT on an orbital shaker (gentle setting). Then, a final addition of 4 μL/well of antibody detection mix, containing both the Europium-Cryptate (donor) and d2 (acceptor) tagged detection components, was added followed by a further 2-hour incubation at RT, and then the plate was read using a TR-FRET (time resolved fluorescence resonance energy transfer) based protocol.

In assay [2] the target is T2, hM4 receptors (Homo sapiens, UniProt P08173).
T2 construct: expressed in transfected cells; host or cells: CHO cells
T2 sequence (P08173 1-479): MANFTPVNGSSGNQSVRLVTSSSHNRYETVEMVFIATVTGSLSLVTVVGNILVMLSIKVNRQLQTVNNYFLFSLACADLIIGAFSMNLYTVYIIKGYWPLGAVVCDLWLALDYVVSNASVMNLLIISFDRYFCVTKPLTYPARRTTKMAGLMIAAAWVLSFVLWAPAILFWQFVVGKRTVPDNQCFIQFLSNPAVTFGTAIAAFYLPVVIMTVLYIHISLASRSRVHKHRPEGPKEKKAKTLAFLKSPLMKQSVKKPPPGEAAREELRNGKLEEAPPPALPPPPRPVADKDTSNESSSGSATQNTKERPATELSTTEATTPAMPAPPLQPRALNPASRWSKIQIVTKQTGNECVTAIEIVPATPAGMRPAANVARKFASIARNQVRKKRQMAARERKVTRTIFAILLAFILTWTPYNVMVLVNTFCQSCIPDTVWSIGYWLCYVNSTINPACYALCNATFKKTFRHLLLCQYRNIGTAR
Kind of assay: Human M4 PAM pERK assay. The assay is classed as cell-based. To be noted: CHO cells expressing hM4; EC20 of acetylcholine (10 nM final); TR-FRET. The procedure:
as §1, §2, §3, §4
Background: TR-FRET usually uses a lanthanide donor and a delayed reading to cut background.

In assay [3] the target is T3, human M4 receptor (Homo sapiens, UniProt P08173).
T3 construct: expressed in transfected cells
T3 sequence (P08173 1-479): T2 sequence (P08173 1-479)
Kind of assay: M4 GTPγS PAM assay. The class given is biochemical. To be noted: membranes of CHO-K1 cells stably expressing human M4; EC20 acetylcholine 40 nM; 35S-GTP. The method, then: The M4 GTPγS PAM method was used. Membranes were prepared for GTPgS binding assays from CHO-K1 cells stably expressing human M4 receptor. Briefly, cells were grown in 5-layer cell culture flasks. Cells were washed with 50 mL of PBS and then dissociated with 0.05% trypsin. Dissociated cells were then collected by centrifugation at 650×g for 8 minutes at 4° C. Pellets were washed again in PBS by centrifugation and resuspended in 30 mL of 20 mM HEPES, 10 mM EDTA, pH 7.4. After sitting on ice for 30 min, membranes were collected by centrifugation at 50000×g for 15′ at 4° C., resuspended in 30 mL of 20 mM HEPES, 0.1 mM EDTA, pH 7.4 and collected again by centrifugation. Pellets were then washed twice by centrifugation in 30 mL of 20 mM HEPES, pH 7.4, and stored at −80° C. until the day of the assay. On the day of the assay, pellets were thawed on ice and resuspended in 1 mL of 20 mM HEPES, pH 7.4, 10 mM MgCl2, 100 mM NaCl using dounce homogenization. Membrane protein concentration is determined by BCA protein assay (Promega, Madison, WI) according to Promega guidelines.
On the day of the assay, serial dilutions of test PAM compounds were brought up in assay buffer (20 mM HEPES, 10 mM MgCl2, 100 mM NaCl) at 4× final assay concentration. […] of membrane homogenates (containing […] of membrane protein) were prepared in assay buffer supplemented with GDP at 4× final assay concentration (final assay concentration of GDP is 5 μM for M2 and 0.1 μM for M4) and dispensed into 96 well polypropylene, U-bottom Greiner plates. […] of vehicle or test PAM compound at 4× of final assay concentration diluted in the assay buffer were added to membrane and plates are incubated for 10-15 minutes at room temperature with gentle shaking. Then, […] of EC20 acetylcholine in assay buffer at 4× final assay concentration was added to assay plates (EC20 final assay concentrations was 40 nM for human M4).
Plates were then incubated, with shaking, for an additional 10-15 minutes. […] of 0.4 nM 35S-GTP (Perkin Elmer, Waltham, MA) in assay buffer was added to assay mixtures. The binding reaction is left on the shaker for 1 hour at room temperature. Membranes in assay reactions were then transferred to GF/C filter plates (Unifilter, Perkin Elmer) and washed three times using a FilterMate Harvester (Perkin Elmer) with cold assay buffer containing no GDP. Filter plates were then dried at 40° C. overnight followed by the addition of […] of Beta Plate Scintillation liquid. Plates are top and bottom sealed before being read on TopCount scintillation counter (Perkin Elmer, Waltham, MA).

The structures appear in SMILES notation.

By EC50 is commonly meant the concentration at which the effect is half-maximal. Regarding `COc1nc(C)nc2c1C(C)N(C(=O)CC1CN(c3ccnc(C(F)(F)F)c3)C1)C2` (racemic) [Compound I-51, 1-(4-Methoxy-2,5-dimethyl-5,7-dihydro-6H-pyrrolo[3,4-d]pyrimidin-6-yl)-2-(1-(2-(trifluoromethyl)pyridin-4-yl)azetidin-3-yl)ethan-1-one], the EC50 is 500 to 2000 nM in assay [1], 100 to 500 nM in assay [2] and 100 to 500 nM in assay [3].
Turning to `COc1nc(C#N)nc2c1C(C)N(C(=O)CC1CN(c3ccnc(C4CC4)c3)C1)C2` (single isomer, unassigned) [Compound I-12, 6-(2-(1-(2-Cyclopropylpyridin-4-yl)azetidin-3-yl)acetyl)-4-methoxy-5-methyl-6,7-dihydro-5H-pyrrolo[3,4-d]pyrimidine-2-carbonitrile], the EC50 was 500 to 2000 nM in assay [1], at most 100 nM in assay [2] and at most 100 nM in assay [3].
Consider `COc1nc(C)nc2c1CN(C(=O)CC1CN(c3ccnc(C(F)(F)F)c3)C1)C2C` (single isomer, unassigned) [Compound I-62, 1-(4-Methoxy-2,7-dimethyl-5,7-dihydro-6H-pyrrolo[3,4-d]pyrimidin-6-yl)-2-(1-(2-(trifluoromethyl)pyridin-4-yl)azetidin-3-yl)ethan-1-one], for which the EC50 in assay [1] fell in the range of 500 to 2000 nM; in assay [2] it was 100 to 500 nM; in assay [3], 100 to 500 nM.
In the case of `COc1nc(C#N)nc2c1C(C)N(C(=O)CC1CN(c3cccc(F)c3F)C1)C2` (single isomer, unassigned) [Compound I-20, 6-(2-(1-(2,3-Difluorophenyl)azetidin-3-yl)acetyl)-4-methoxy-5-methyl-6,7-dihydro-5H-pyrrolo[3,4-d]pyrimidine-2-carbonitrile], the EC50 in assay [1], in assay [2] and in assay [3] was at least 2000 nM throughout.
As to `COc1nc2c(c(OC)n1)CN(C(=O)CC1CN(c3ccnc(C(F)(F)F)c3)C1)C2` [Compound I-64, 1-(2,4-Dimethoxy-5,7-dihydro-6H-pyrrolo[3,4-d]pyrimidin-6-yl)-2-(1-(2-(trifluoromethyl)pyridin-4-yl)azetidin-3-yl)ethan-1-one], the EC50 in assay [1] is at least 2000 nM; in assay [2], 100 to 500 nM; in assay [3] it was 500 to 2000 nM.
For `COc1nc(C)nc2c1C(C)N(C(=O)CC1CN(c3ccc(C#N)cc3)C1)C2` (single isomer, unassigned) [Compound I-56, 4-(3-(2-(4-Methoxy-2,5-dimethyl-5,7-dihydro-6H-pyrrolo[3,4-d]pyrimidin-6-yl)-2-oxoethyl)azetidin-1-yl)benzonitrile] the same measures were 100 to 500 nM, at most 100 nM and 100 to 500 nM.
For `COc1nc(C#N)nc2c1C(C)N(C(=O)CC1CN(c3ccc(C4CC4)c(F)c3)C1)C2` (single isomer, unassigned) [Compound I-21, 6-(2-(1-(4-Cyclopropyl-3-fluorophenyl)azetidin-3-yl)acetyl)-4-methoxy-5-methyl-6,7-dihydro-5H-pyrrolo[3,4-d]pyrimidine-2-carbonitrile], in that order: at least 2000 nM, at least 2000 nM and at least 2000 nM.
For `COc1nc(C#N)nc2c1C(C)N(C(=O)CC1CN(c3ccnc(C(F)(F)F)c3)C1C)C2` (single isomer, unassigned) [Compound I-38, 4-Methoxy-5-methyl-6-(2-(2-methyl-1-(2-(trifluoromethyl)pyridin-4-yl)azetidin-3-yl)acetyl)-6,7-dihydro-5H-pyrrolo[3,4-d]pyrimidine-2-carbonitrile] the same measures were 500 to 2000 nM, 100 to 500 nM and 500 to 2000 nM.
`COc1nc(C#N)nc2c1C(C)N(C(=O)CC1CN(c3ccc(C4CC4)nc3)C1)C2` (single isomer, unassigned) [Compound I-32, 6-(2-(1-(6-Cyclopropylpyridin-3-yl)azetidin-3-yl)acetyl)-4-methoxy-5-methyl-6,7-dihydro-5H-pyrrolo[3,4-d]pyrimidine-2-carbonitrile]: the EC50 in assay [1], in assay [2] and in assay [3] was at least 2000 nM throughout.
With `COc1nc(C)nc2c1C(C)N(C(=O)CC1CN(c3ccc(C#N)cc3)C1)C2` (single isomer, unassigned) [Compound I-57, 4-(3-(2-(4-Methoxy-2,5-dimethyl-5,7-dihydro-6H-pyrrolo[3,4-d]pyrimidin-6-yl)-2-oxoethyl)azetidin-1-yl)benzonitrile], the EC50 in assay [1] was at least 2000 nM; in assay [2] it was at least 2000 nM; in assay [3], 500 to 2000 nM.
Regarding `COc1nc(C)nc2c1CN(C(=O)CC1(F)CN(c3ccnc(C(F)(F)F)c3)C1)C2` [Compound I-42, 2-(3-Fluoro-1-(2-(trifluoromethyl)pyridin-4-yl)azetidin-3-yl)-1-(4-methoxy-2-methyl-5,7-dihydro-6H-pyrrolo[3,4-d]pyrimidin-6-yl)ethan-1-one], the EC50 in assay [2] and in assay [3] was at least 2000 nM each time.
As to `Cc1nc2c(c(OC3CC3)n1)CN(C(=O)CC1CN(c3ccnc(C(F)(F)F)c3)C1)C2` [Compound I-49, 1-(4-Cyclopropoxy-2-methyl-5,7-dihydro-6H-pyrrolo[3,4-d]pyrimidin-6-yl)-2-(1-(2-(trifluoromethyl)pyridin-4-yl)azetidin-3-yl)ethan-1-one], the concentration giving a half-maximal response (EC50) in assay [2] and in assay [3] was at least 2000 nM throughout.
